Like-named read-outs stand apart in the source and are kept apart here.

The target of this assay is recombinant eIF4E (Homo sapiens (Human), UniProt P06730). Briefly: Fluorescence polarization competition assay for eIF4E binding potency. The essentials: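 IC50 derived from fluorescence polarization over an 8-point, 3-fold compound series after 30 min room-temperature equilibration in the dark. Mix: eIF4E 75 nM pre-bound 5 min to 20 nM EDA-m^7GDP-ATTO-550; buffer 20 mM Tris pH 7.5, 100 mM NaCl, 1 mM DTT, 0.02% Tween-20; DMSO 1%.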

[1] abbreviates: inhibition of eIF4E/EDA-m7GDP-ATTO-550 binding by 50%, Table 4B calculated values, read-out: IC50.
The mark [2] stands for this setting: fluorescence polarization competition, 75 nM recombinant eIF4E, 20 nM EDA-m7GDP-ATTO-550, IC50 class, read-out: elF4E FP.
The mark [3] stands for this setting: inhibition of eIF4E/EDA-m7GDP-ATTO-550 binding, calculated IC50 values, Table 4B, read-out: IC50.

Sequence of recombinant eIF4E (P06730 whole entry): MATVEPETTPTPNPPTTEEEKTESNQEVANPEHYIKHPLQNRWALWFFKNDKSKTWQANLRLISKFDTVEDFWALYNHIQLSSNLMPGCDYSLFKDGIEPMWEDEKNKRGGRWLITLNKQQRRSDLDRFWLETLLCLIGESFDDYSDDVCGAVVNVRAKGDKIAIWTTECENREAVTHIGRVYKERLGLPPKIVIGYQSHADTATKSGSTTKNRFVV

Regarding `CCc1cc(-c2cc(Cl)ccc2OCCn2c(C)nc3cc(CN(C)C)c(OC(F)F)c(C#N)c3c2=O)c2scc(C(=O)O)c2n1` [compound 896], the IC50 under setting [1] was 1.57 nM.

As for `N#Cc1cc2c(=O)n(CCOc3ccc(Cl)cc3-c3cccc(-c4nn[nH]n4)c3)cnc2cn1` [compound 128], the IC50 is, setting by setting: under setting [2], 50 to 1000 nM; under setting [1], 970 nM. On the same counts, the results for `Cc1nc2cc(C(F)(F)F)c(CN3CCOCC3)c(C#N)c2c(=O)n1CC#Cc1ccc(Cl)cc1-c1ccnc2c(C(=O)O)csc12` [compound 617] are below 50 nM and 39.7 nM. For `Cc1nc2cc(C(F)(F)CN(C)C)cc(C#N)c2c(=O)n1CCOc1ccc(Cl)cc1-c1ccnc2c(C(=O)O)csc12` [compound 514], in that order: below 50 nM and 39.9 nM. Take `Cc1ccc(-c2cc(Cl)ccc2OCCn2c(C)nc3c(N(C)C)ncc(C#N)c3c2=O)c2scc(C(=O)O)c12` [compound 725]: the IC50 was below 50 nM under setting [2] and 38.2 nM under setting [1]. With `Cc1nc2cnc(N(C)C3CCN([C@H]4C[C@@H](OC(F)(F)F)C4)CC3)c(C#N)c2c(=O)n1CC#Cc1ccc(Cl)cc1-c1ccnc2c(C(=O)NS(=O)(=O)c3ccccn3)csc12` [compound 1611], under setting [3], the IC50 was 3.85 nM. On to `Cc1nc2cnc(N3CC4(CN(CCF)C4)C3)c(C#N)c2c(=O)n1CC#Cc1ccc(Cl)cc1-c1ccnc2c(C(=O)O)csc12` [compound 892], for which the IC50 is, setting by setting: under setting [2], below 50 nM; under setting [1], 36 nM. On the same counts, the results for `Cc1c(S(C)(=O)=O)c2cc(C(F)(F)F)cc(C#N)c2c(=O)n1CCOc1ccc(Cl)cc1-c1ccnc2c(C(=O)O)csc12` [compound 318] are below 50 nM and 2.92 nM. Turning to `N#Cc1cc(C(F)(F)F)cc2ncn(CCOc3ccc(Cl)cc3-c3ccnc(C(=O)O)c3)c(=O)c12` [compound 162], the IC50 is below 50 nM under setting [2] and 28.7 nM under setting [1]. For the compound `CNS(=O)(=O)c1cc2c(=O)n(CCOc3ccc(Cl)cc3-c3cccc(C(=O)O)c3)cnc2cn1` [compound 32], the IC50 under setting [2] fell in the range of 50 to 1000 nM and the IC50 under setting [1] is 190 nM. In the case of `Cc1nc2cc(C(F)(F)F)cc(C#N)c2c(=O)n1CCOc1ccc(Cl)cc1-c1coc2c(C(=O)O)ccnc12` [compound 324], the IC50 under setting [2] was 50 to 1000 nM and the IC50 under setting [1] is 93.3 nM.

Take `Cc1cc(-c2cc(Cl)ccc2C#CCn2c(C)nc3cc(C(F)(F)F)c(N4CCN(C)CC4)c(C#N)c3c2=O)c2scc(C(=O)O)c2n1` [compound 1213]: the IC50 reads like this: under setting [2], below 50 nM; under setting [3], 42.7 nM. Take `Cc1cc(-c2cc(Cl)ccc2OCCn2c(C)nc3cc(C(F)(F)F)c(CCN(C)C)c(C#N)c3c2=O)c2sc(C)c(C(=O)O)c2n1` [compound 1200]: the IC50 was below 50 nM under setting [2] and 14.8 nM under setting [3]. Take `Cc1nc2cnc(N3CC4(CN(CC(F)F)C4)C3)c(C#N)c2c(=O)n1CC#Cc1ccc(Cl)cc1-c1ccnc2c(C(=O)O)csc12` [compound 893]: the IC50 was below 50 nM under setting [2] and 20.1 nM under setting [1]. As to `Cc1cc(-c2cc(Cl)ccc2OCCn2c(C)nc3cc(C(F)(F)F)c(N4CCCCC4)c(C#N)c3c2=O)c2scc(C(=O)O)c2n1` [compound 423], the IC50 was below 50 nM under setting [2] and 8.84 nM under setting [1].

On to `Cc1nc2cnc(N(C)C3C[C@H]4C[C@@H]3CN4CC(C)(F)F)c(C#N)c2c(=O)n1CC#Cc1ccc(Cl)cc1-c1ccnc2c(C(=O)O)csc12` (stereo partly drawn) [compound 1689], for which the IC50 under setting [3] was 22.2 nM. As to `Cc1nc2cc(Cl)c(Cl)c(C#N)c2c(=O)n1CCOc1ccc(Cl)cc1-c1ccnc2c(C(=O)O)csc12` [compound 207], the IC50 reads like this: under setting [2], below 50 nM; under setting [1], 21.3 nM. On to `Cc1nc2cc(C(F)(F)F)c(N3CCN(C)CC3)c(C#N)c2c(=O)n1CCOc1ccc(Cl)cc1-c1ccc(F)c2c(C(=O)O)csc12` [compound 1214], for which the IC50 is, setting by setting: under setting [2], below 50 nM; under setting [3], 5.08 nM.

With `Cc1c(CC2CCOCC2)nc(C#N)c2nc(C)n(CC#Cc3ccc(Cl)cc3-c3ccnc4c(C(=O)O)csc34)c(=O)c12` [compound 1965], the IC50 under setting [3] is 86.4 nM. As to `Cc1nc2cnc(N3CC4(CC(N(C)C5CC5)C4)C3)c(C#N)c2c(=O)n1CCOc1ccc(Cl)cc1-c1ccnc2c(C(=O)O)csc12` [compound 829], the IC50 by setting is: under setting [2], below 50 nM; under setting [1], 4.53 nM. In the case of `Cc1nc2cnc(N(C)C3CCN(C4COC4)CC3)c(C#N)c2c(=O)n1CC#Cc1ccc(Cl)cc1-c1ccnc2c(C(=O)O)csc12` [compound 1523], the IC50 under setting [3] was 13.1 nM. In the case of `Cc1nc2cnc(N(C)C3CCN(CC(F)(F)F)CC3)c(C#N)c2c(=O)n1CCOc1ccc(Cl)cc1-c1ccnc2c(C(=O)NS(C)(=O)=O)csc12` [compound 1157], the IC50 under setting [2] is below 50 nM and the IC50 under setting [1] was 22 nM. On the same counts, the results for `Cc1nc2cc(C(F)(F)F)c(CN3CCCC3)c(C#N)c2c(=O)n1CCOc1ccc(Cl)cc1-c1ccnc2c(C(=O)O)csc12` [compound 526] are 50 to 1000 nM and 64.1 nM. As for `Cc1nc2cnc(N3CC4(C3)CN(C3CCCC3)C4)c(C#N)c2c(=O)n1CCOc1ccc(Cl)cc1-c1ccnc2c(C(=O)O)csc12` [compound 1369], under setting [3], the IC50 is 13.2 nM. With `Cc1nc2cnc(/C=C/CN3CCC(F)(F)CC3)c(C#N)c2c(=O)n1CCOc1ccc(Cl)cc1-c1ccnc2c(C(=O)O)csc12` [compound 1121], the IC50 is below 50 nM under setting [2] and 9.26 nM under setting [1]. Regarding `Cc1nc2cc(Cl)c(C(F)F)c(C#N)c2c(=O)n1CCOc1ccc(Cl)cc1-c1ccnc2c(C(=O)O)csc12` [compound 1951], the IC50 under setting [3] was 19.9 nM. In the case of `Cc1nc2cc(C(F)(F)F)cc(Br)c2c(=O)n1CCOc1ccc(Cl)cc1-c1ccnc2c(C(=O)O)csc12` [compound 305], the IC50 reads like this: under setting [2], 50 to 1000 nM; under setting [1], 431 nM. Consider `Cc1nc2cnc(N(C)C3CCN(C(C)(C)C(F)(F)F)CC3)c(C#N)c2c(=O)n1CCOc1ccc(Cl)cc1-c1ccnc2c(C(=O)O)csc12` [compound 1514], for which, under setting [3], the IC50 is 51.7 nM. For `N#Cc1ncc(CCOc2ccc(Cl)cc2-c2cccc(C(=O)O)c2)c2c(=O)[nH]c(NCC(F)(F)F)nc12` [compound 177], the IC50 runs as follows: under setting [2], below 50 nM; under setting [1], 26.8 nM. On the same counts, the results for `Cc1cc(-c2cc(Cl)ccc2OCCn2c(C)nc3cc(C(F)(F)F)c(Cc4cccnc4)c(Cl)c3c2=O)c2scc(C(=O)O)c2n1` [compound 399] are 50 to 1000 nM and 69.9 nM.

`Cc1nc2cnc(N3CCN(CCF)CC3)c(C#N)c2c(=O)n1CC#Cc1ccc(Cl)cc1-c1ccnc2c(C(=O)NS(C)(=O)=O)csc12` [compound 1488]: the IC50 under setting [3] was 12.3 nM. With `Cc1nc2cc(F)c(F)c(C#N)c2c(=O)n1CCOc1ccc(Cl)cc1-c1ccnc2c(-c3nnn[nH]3)csc12` [compound 306], the IC50 is, setting by setting: under setting [2], 50 to 1000 nM; under setting [1], 91.2 nM.

As to `Cc1nc2cc(C(F)(F)F)c(Cl)c(C#N)c2c(=O)n1CCOc1ccc(Cl)cc1-c1ccnc2c(C(=O)O)csc12` [compound 1904], the IC50 under setting [3] was 36.9 nM. Still for that read-out and setting: under `Cc1nc2cnc(N(C)C3CCN(CC(F)(F)c4ccn(C)n4)CC3)c(C#N)c2c(=O)n1CC#Cc1ccc(Cl)cc1-c1ccnc2c(C(=O)O)csc12` [compound 1536] stands 18.3 nM; under `Cc1nc2cc(C(F)(F)F)c(N3CCN(C)CC3)cc2c(=O)n1CCOc1ccc(Cl)cc1-c1ccnc2c(C(=O)NS(C)(=O)=O)csc12` [compound 1299], 32.1 nM. For the compound `Cc1nc2cc(C(F)(F)F)cc(C#N)c2c(=O)n1CCOc1ccc(Cl)cc1-c1cc(C#N)nc2c(C(=O)O)csc12` [compound 446], the IC50 under setting [2] was in the range of 50 to 1000 nM. Regarding `Cc1nc2cnc(N3CCN(C)C(C(F)F)C3)c(C#N)c2c(=O)n1CCOc1ccc(Cl)cc1-c1ccnc2c(C(=O)O)csc12` (stereo not drawn) [compound 1305], the IC50 under setting [3] is 26.5 nM. Same read-out and setting: the value for `O=C(O)c1cc(-c2cc(Cl)ccc2OCCn2nnc3ccccc3c2=O)ccn1` [compound 2014] was 12200 nM. As to `CCc1cc(-c2cc(Cl)ccc2OCCn2c(C)nc3cnc([C@@H]4[C@@H]5CN(C)C[C@@H]54)c(C#N)c3c2=O)c2scc(C(=O)O)c2n1` [compound 1216], the IC50 reads like this: under setting [2], below 50 nM; under setting [3], 10.3 nM. Take `Cc1nc2cc(C(F)(F)F)c(N3CCN(C)CC3)nc2c(=O)n1CCOc1ccc(Cl)cc1-c1ccnc2c(C(=O)NS(C)(=O)=O)csc12` [compound 1300]: under setting [3], the IC50 was 18.1 nM. For the compound `Cc1cc(-c2cc(Cl)ccc2OCCn2c(C)nc3cc(F)c(C)c(C#N)c3c2=O)c2scc(C(=O)O)c2n1` [compound 368], the IC50 was below 50 nM under setting [2] and 41.1 nM under setting [1]. `Cc1nc2cc(C(F)(F)F)c(N3CCN(C)CC3)c(C#N)c2c(=O)n1CC#Cc1ccc(Cl)cc1-c1ccnc2c(C(=O)O)csc12` [compound 1212]: the IC50 reads like this: under setting [2], below 50 nM; under setting [3], 44.2 nM. On to `Cc1nc2cc(C(F)(F)F)c(N3CCC4(CC3)CN(CC(F)F)C4)c(C#N)c2c(=O)n1CCOc1ccc(Cl)cc1-c1ccnc2c(C(=O)O)csc12` [compound 1912], for which the IC50 under setting [3] was 5.96 nM. With `Cc1nc2cnc(N3CC4(C3)CN(C3C(C)(C)C3(C)C)C4)c(C#N)c2c(=O)n1CCOc1ccc(Cl)cc1-c1ccnc2c(C(=O)O)csc12` [compound 1476], under setting [3], the IC50 is 16.2 nM. Take `Cc1nc2cc(C(F)(F)F)c(CN(C)CC(F)F)c(C#N)c2c(=O)n1CCOc1ccc(Cl)cc1-c1ccnc2c(C(=O)O)csc12` [compound 525]: the IC50 by setting is: under setting [2], below 50 nM; under setting [1], 34.7 nM.

Consider `Cc1nc2cnc(N(C)C3CCN(CCF)CC3)c(C#N)c2c(=O)n1CC#Cc1ccc(Cl)cc1-c1ccnc2c(C(=O)O)csc12` [compound 1653], for which, under setting [3], the IC50 is 26.5 nM.

Take `Cc1nc2cc(C(F)(F)F)cc(C#N)c2c(=O)n1CCOc1ccc(Cl)cc1-c1ccnc2c(C(=O)O)cnn12` [compound 661]: the IC50 was below 50 nM under setting [2] and 12.1 nM under setting [1].

Source of the values: US11286268B1, “EIF4E-inhibiting compounds and methods” (EFFECTOR THERAPEUTICS, INC., priority 2019, dated 2022).
